Source: patent US20220226283A1, “COMBINATION PRODUCT CONTAINING LIMONOID COMPOUND AND DPP-4 INHIBITOR” (ZHEJIANG YANGSHENGTANG INSTITUTE OF NATURAL MEDICATION CO., …, priority 2019, published 2022)

Key:
Format in all cases: in vivo
db/db mice [1] = assay: Blood glucose in mouse type II diabetes model (limonoid compound, saxagliptin or combination); conditions: single administration 0.04 g/kg per day by gavage, two weeks, 1 h after the last administration, mean ± SD
Source text: (§1) In the present example, db/db mice (line name BKS.Cg-Dock7^m+/+Lepr^db/Nju) were used to perform hypoglycemic efficacy evaluation test of animals (blood glucose level and leptin). The limonoid compound was selected from obacunone, isoobacunoic acid and obacunone glycoside, and saxagliptin single administration group, obacunone single administration group, isoobacunoic acid single administration group, obacunone glycoside single administered group, and respective combination thereof with saxagliptin administration groups were set.
(§2) Conditions for experimental feeding: as type II diabetes model mice, 6-week-old SPF-grade db/db mice were purchased from the Nanjing Model Biology Institute, and subjected to experimental feeding after 7 days of preliminary feeding. It should be noted that the conditions for raising the mice were as follows: the temperature was 23±1° C., the humidity was 55±10%, the lights were turned on between 7 am and 7 pm (the lights were turned off at other time), and the mice were allowed to freely take in water and feed. The experimental feed was mouse growth-stable feed (GB M2118), and the daily feeding and management of the animals were under the responsibility of the animal security department, which provided the animals with sufficient diet and fresh drinking water daily.
Experimental grouping: male db/db mice (20±2 g) were selected, and 18 male mice in each group were tested. The experimental groups included normal control group (db/m, n=18), model group (db/db, n=18), obacunone group (db/db, n=18), isoobacunoic acid group (db/db, n=18), obacunone glycoside group (db/db, n=18), saxagliptin group (db/db, n=18), obacunone/saxagliptin combination group (db/db, n=18), isoobacunoic acid/saxagliptin combination group (db/db, n=18), obacunone glycoside/saxagliptin combination group (db/db, n=18). […]

db/db mice [2] = assay: Blood glucose in mouse type II diabetes model (limonoid compound, linagliptin or combination); conditions: single administration 0.2 g/kg per day by gavage, two weeks, 1 h after the last administration, mean ± SD
Source text: (§3) In the present embodiment, the limonoid compound was selected from nomilin, deacetylnomilin, nomilin acid, deacetylnomilin acid glycoside, and linagliptin single administration group, nomilin single administration group, deacetylnomilin single administration group, nomilin acid single administered group, deacetylnomilin acid glycoside single administration group, and respective combination thereof with linagliptin administration groups were set.
as §2
(§4) Experimental grouping: male db/db mice (20±2 g) were selected, 18 male mice in each group were tested, and drinking bottles were sterilized weekly. […]

db/db mice [3] = assay: Serum insulin (Elisa) in mouse type II diabetes model (limonoid compound, linagliptin or combination); conditions: single administration 0.2 g/kg per day by gavage, two weeks, mean ± SD
Source text: as §3, §2, §4

[4] = system: mouse pancreatic islet β-cell injury model (ICR mice modeled with streptozotocin); assay: Blood glucose in mouse pancreatic islet β-cell injury model (limonoid compound, vildagliptin or combination); conditions: STZ mice, single administration 0.1 g/kg per day by gavage, two weeks, 1 h after the last administration, mean ± SD
Description: as §2, with “It” for “Conditions for experimental feeding: as type II diabetes model mice, 6-week-old SPF-grade db/db mice were purchased from the Nanjing Model Biology Institute, and subjected to experimental feeding after 7 days of preliminary feeding. It”
SPSS 16.0 software was used for statistical analysis. The data were expressed as mean and standard deviation. The data before and after were analyzed by t-test, and P<0.05 was considered statistically significant.

db/db mice [5] = assay: Serum leptin (Elisa) in mouse type II diabetes model (limonoid compound, saxagliptin or combination); conditions: single administration 0.04 g/kg per day by gavage, two weeks, mean ± SD
Source text: as §1
as §2, with “daily. […]” for “daily.”

[6] = system: mouse pancreatic islet β-cell injury model (ICR mice modeled with streptozotocin); assay: Blood glucose in mouse pancreatic islet β-cell injury model (limonoid compound, sitagliptin or combination); conditions: STZ mice, single administration 0.02 g/kg per day by gavage, two weeks, 1 h after the last administration, mean ± SD
Source text: In this example, a mouse pancreatic islet β-cell injury model was established by modeling ICR mice with streptozotocin (STZ) (Li Nan et al., Protective effect of pine pollen on kidney damage in diabetic nephropathy mice, Science and Technology Review, 2014, 32 (4/5): 95-99), and used to complete the evaluation of hypoglycemic effect in animals (this model could simulate pancreatic islet β-cell damage state of type I and type II diabetics). The limonoid compound was selected from the group consisting of limonin, isolimonic acid, limonin glycoside, and isolimonic acid glycoside, and sitagliptin single administration group, limonin single administration group, isolimonic acid single administration group, limonin glycoside singe administration group, isolimonic acid glycoside singe administration group, and respective combination thereof with sitagliptin administration groups were set. Conditions of experimental feeding: ICR mice (20±2 g), aged 6 weeks, purchased from Zhejiang Academy of Medical Sciences, and subjected to experimental feeding after 7 days of preliminary feeding. […] The data were expressed as mean and standard deviation. The data before and after were analyzed by t-test, and P<0.05 was considered statistically significant.

## CC1(C)OC(=O)C=C[C@]2(C)[C@H]3CC[C@@](C)([C@@H](O[C@@H]4O[C@H](CO)[C@@H](O)[C@H](O)[C@H]4O)c4ccoc4)[C@@]4(O[C@@H]4C(=O)O)[C@]3(C)C(=O)C[C@@H]12 [Obacunone glycoside, obacunone glycoside]
db/db mice [1]
  Blood glucose value: 13.6 ± 2.9 mmol/L

## CC#CCn1c(N2CCC[C@@H](N)C2)nc2c1c(=O)n(Cc1nc(C)c3ccccc3n1)c(=O)n2C [Linagliptin, linagliptin]
db/db mice [2]
  Blood glucose value: 11.9 ± 2.1 mmol/L
db/db mice [3]
  Insulin: 8.00 ± 1.94 pg/mL

## N#C[C@@H]1CCCN1C(=O)CNC12CC3CC(CC(O)(C3)C1)C2 [Vildagliptin, vildagliptin]
[4]
  Blood glucose value: 16.9 ± 2.6 mmol/L

## N#C[C@@H]1C[C@@H]2C[C@@H]2N1C(=O)[C@@H](N)C12CC3CC(CC(O)(C3)C1)C2 [Saxagliptin, saxagliptin]
db/db mice [5]
  Leptin: 32.52 ± 5.11 pg/mL
db/db mice [1]
  Blood glucose value: 13.9 ± 3.5 mmol/L

## CC1(C)O[C@@H](CC(=O)O)[C@]2(C)[C@H]3CC[C@@]4(C)[C@H](c5ccoc5)OC(=O)[C@H]5O[C@]54[C@]3(C)C(=O)C[C@@H]12 [Isoobacunoic acid, isoobacunoic acid]
db/db mice [1]
  Blood glucose value: 14.6 ± 3.1 mmol/L

## N[C@@H](CC(=O)N1CCn2c(nnc2C(F)(F)F)C1)Cc1cc(F)c(F)cc1F [Sitagliptin, sitagliptin]
[6]
  Blood glucose value: 21.7 ± 4.9 mmol/L
